Source: ChEMBL document CHEMBL5241054, “Effective anti-aromatase therapy to battle against estrogen-mediated breast cancer: Comparative SAR/QSAR assessment on steroidal aromatase inhibitors” (Eur J Med Chem, 2020)

Biological target: T1, Aromatase (Homo sapiens, UniProt P11511)
T1 sequence (P11511 whole entry): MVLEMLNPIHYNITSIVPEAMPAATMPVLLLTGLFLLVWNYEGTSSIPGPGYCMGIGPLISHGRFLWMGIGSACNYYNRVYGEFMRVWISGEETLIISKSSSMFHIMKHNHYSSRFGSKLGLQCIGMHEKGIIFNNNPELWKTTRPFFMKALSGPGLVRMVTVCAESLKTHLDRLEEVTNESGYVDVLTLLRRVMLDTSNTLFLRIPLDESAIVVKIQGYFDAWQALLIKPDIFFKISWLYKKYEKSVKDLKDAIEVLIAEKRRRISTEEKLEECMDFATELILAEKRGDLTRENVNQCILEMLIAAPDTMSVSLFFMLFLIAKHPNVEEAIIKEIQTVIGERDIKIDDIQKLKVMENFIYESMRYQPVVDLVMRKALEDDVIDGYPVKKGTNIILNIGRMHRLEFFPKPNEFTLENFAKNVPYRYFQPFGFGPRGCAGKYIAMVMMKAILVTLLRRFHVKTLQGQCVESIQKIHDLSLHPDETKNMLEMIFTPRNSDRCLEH

SMILES	IC50
CO[C@H]1C[C@@H]2[C@H](CC[C@]3(C)[C@@H](O)CC[C@@H]23)c2ccc(O)cc21	99.1 µM
C[C@]12CCC(=O)C=C1C[C@H](CCc1ccccc1)[C@@H]1[C@@H]2CC[C@]2(C)C(=O)CC[C@@H]12	0.0402 µM
C[C@]12CC[C@H]3[C@@H](CC=C4C(=O)CCC[C@@]43C)[C@@H]1CC[C@@H]2O	10 µM
CCCCCC1=C[C@@H]2[C@H](CC[C@]3(C)C(=O)CC[C@@H]23)[C@@]2(C)CCC(=O)C=C12	0.22 µM
CO[C@H]1C[C@@H]2[C@H](CC[C@]3(C)C(=O)CC[C@@H]23)c2ccc(O)cc21	59 µM
C[C@]12CC[C@@H]3c4ccc(O)cc4[C@H](CCCc4ccccc4)C[C@H]3[C@@H]1CC[C@@H]2O	28 µM
C[C@]12CCC(=O)C=C1[C@H](CCCCc1ccccc1)C[C@@H]1[C@@H]2CC[C@]2(C)C(=O)CC[C@@H]12	135 µM
CO[C@@H]1C[C@@H]2[C@H](CC[C@]3(C)C(=O)CC[C@@H]23)c2ccc(O)cc21	49 µM
CCCCCC[C@@H]1C[C@@]2(C)C(=CC1=O)CC[C@@H]1[C@@H]2CC[C@]2(C)C(=O)CC[C@@H]12	10.4 µM
C[C@]12CC[C@H]3[C@@H](CCC4=CC(=O)CC[C@@]43C(F)F)[C@@H]1CC[C@@H]2O	0.42 µM
CCC1C[C@H]2[C@@H]3CC[C@H](O)[C@@]3(C)CC[C@@H]2[C@@]2(C)C=CC(=O)C=C12 (stereo partly drawn)	0.0619 µM
Cc1ccc(CC[C@@H]2C[C@@]3(C)C(=CC2=O)CC[C@@H]2[C@@H]3CC[C@]3(C)C(=O)CC[C@@H]23)cc1	38.8 µM
CCCC[C@H]1C[C@@H]2[C@H](CC[C@]3(C)C(=O)CC[C@@H]23)[C@@]2(C)CCC(=O)C=C12	0.791 µM
C[C@]12C=C(CCCc3ccccc3)C(=O)C=C1CC[C@@H]1[C@@H]2CC[C@]2(C)C(=O)CC[C@@H]12	0.145 µM
C[C@]12CC[C@H]3[C@@H](CC=C4CCCC[C@@]43C=O)[C@@H]1CCC2=O	8.99 µM
Cc1ccc(S(=O)(=O)N2[C@@H]3[C@@H]4[C@H](CC[C@]5(C)C(=O)CC[C@@H]45)[C@@]4(C)CCC(=O)C=C4[C@@H]32)cc1 (stereo partly drawn)	53.8 µM
C#C[C@@H]1C[C@@H]2[C@H](CC[C@]3(C)C(=O)CC[C@@H]23)[C@@]2(C)CCC(=O)C=C12	1.9 µM
C[C@]12CC[C@@H]3c4cc(C=O)c(O)cc4CC[C@H]3[C@@H]1CCC2=O	11 µM
C[C@]12CC[C@@H]3c4ccc(O)c(F)c4CC[C@H]3[C@@H]1CC[C@@H]2O	87.9 µM
C[C@@H]1C[C@@H]2[C@H](CC[C@]3(C)C(=O)CC[C@@H]23)[C@@]2(C)CCCC=C12	0.049 µM
C[C@]12CC[C@H]3[C@@H](CCC4=CC(=O)CC[C@@]43CF)[C@@H]1CCC2=O	3 µM
CC[C@H]1C[C@@H]2[C@H](CC[C@]3(C)C(=O)CC[C@@H]23)[C@@]2(C)CCC(=O)C=C12	0.26 µM
C[C@]12CC[C@H]3[C@@H](C(=O)C=C4C(=O)CCC[C@@]43C=O)[C@@H]1CCC2=O	51.1 µM

SMILES	IC50
C[C@]12CC[C@H]3[C@@H](CCC4=CC(=O)CC[C@@]43C)[C@@H]1CC[C@@H]2OC(=O)CBr	50 µM
C[C@]12C[C@@H](F)C(=O)C=C1[C@H](F)C[C@@H]1[C@@H]2CC[C@]2(C)C(=O)CC[C@@H]12	1 µM
C[C@]12CC[C@H]3[C@@H](C(=O)C=C4C(=O)CCC[C@@]43C)[C@@H]1CC[C@@H]2O	57 µM
C[C@]12CCC(=O)C=C1[C@H](CCCCCc1ccccc1)C[C@@H]1[C@@H]2CC[C@]2(C)C(=O)CC[C@@H]12	450 µM
C[C@]12CCCCC1=CC[C@@H]1[C@@H]2CC[C@]2(C)C(=O)[C@H](Br)C[C@@H]12	55 µM
C[C@]12CCCC=C1CC[C@@H]1[C@@H]2CC[C@]2(C)C(=O)[C@@H](Br)C[C@@H]12	5.9 µM
C[C@]12CC[C@H]3[C@@H](CCC4=CC(=O)CC[C@@]43CCCl)[C@@H]1CCC2=O	8 µM
C[C@]12CC[C@H]3[C@@H](C(=O)C=C4C=CCC[C@@]43CO)[C@@H]1CCC2=O	60 µM
CCCC[C@H]1C[C@@H]2[C@H](CC[C@]3(C)C(=O)CC[C@@H]23)c2ccc(O)cc21	35 µM
C[C@]12CC[C@@H]3c4cc(NC(=O)c5cccnc5)c(O)cc4CC[C@H]3[C@@H]1CCC2=O	75.3 µM
CC(C)[C@@H]1C[C@@H]2[C@H](CC[C@]3(C)C(=O)CC[C@@H]23)[C@@]2(C)CCC(=O)C=C12	1.1 µM
C[C@]12CC[C@H]3[C@@H](CC(=O)[C@]45O[C@H]4CCC[C@]35C)C1CCC2=O (stereo partly drawn)	11.5 µM
C[C@]12CCC(=O)C=C1C[C@@H](Sc1ccc(N)cc1)[C@@H]1[C@@H]2CC[C@]2(C)C(=O)CC[C@@H]12	0.16 µM
C[C@]12CCC(=O)C=C1C[C@@H](SCc1ccccc1)[C@@H]1[C@@H]2CC[C@]2(C)C(=O)CC[C@@H]12	0.069 µM
CC(=O)O[C@@H]1C[C@@H]2[C@H](CC[C@]3(C)C(=O)CC[C@@H]23)[C@@]2(C)CCCC=C12	0.12 µM
CCC1=C[C@@]2(C)C(=CC1=O)CC[C@@H]1[C@@H]2CC[C@]2(C)C(=O)CC[C@@H]12	0.959 µM
C[C@]12CCC(=O)c3c1c(nn3Cc1ccccc1)C[C@@H]1[C@@H]2CC[C@]2(C)C(=O)CC[C@@H]12	0.342 µM
C[C@@H]1C[C@@H]2[C@H](CC[C@]3(C)[C@@H](O)CC[C@@H]23)c2ccc(O)cc21	61 µM
C[C@]12C=CC(=O)C=C1C(c1ccccc1)=C[C@@H]1[C@@H]2CC[C@]2(C)C(=O)CC[C@@H]12	0.54 µM
C[C@]12CC[C@@H]3C4CCC=CC4=CC(=O)[C@H]3[C@@H]1CCC2=O (stereo partly drawn)	33 µM
C[C@]12CCC(=O)c3nn(C/C=C/c4ccccc4)c(c31)C[C@@H]1[C@@H]2CC[C@]2(C)C(=O)CC[C@@H]12	0.951 µM
C[C@]12CC[C@H]3[C@@H](CC=C4C(=O)CCC[C@@]43C=O)[C@@H]1CCC2=O	27 µM
CO[C@H]1C[C@@H]2[C@H](CC[C@]3(C)C(=O)CC[C@@H]23)[C@@]2(C)CCCC=C12	0.16 µM

SMILES	IC50
CCCCCC[C@H]1C[C@@H]2[C@H](CC[C@]3(C)C(=O)CC[C@@H]23)[C@@]2(C)CCC(=O)C=C12	1 µM
Cc1cc2c(cc1O)CC[C@@H]1[C@@H]2CC[C@]2(C)C(=O)CC[C@@H]12	4.3 µM
CCCCC1=C[C@@]2(C)C(=CC1=O)CC[C@@H]1[C@@H]2CC[C@]2(C)C(=O)CC[C@@H]12	1.84 µM
CCC[C@H]1C[C@@H]2[C@H](CC[C@]3(C)C(=O)CC[C@@H]23)[C@@]2(C)C=CC(=O)C=C12	0.27 µM
C[C@]12CC[C@H]3[C@@H](C[C@H]4O[C@]45C(=O)CCC[C@]35C=O)C1CCC2=O (stereo partly drawn)	210 µM
CCCCCCC[C@@H]1C[C@@H]2[C@H](CC[C@]3(C)C(=O)CC[C@@H]23)[C@@]2(C)C=CC(=O)C=C12	0.06 µM
CCCCOC1=C[C@@]2(C)C(=CC1=O)CC[C@@H]1[C@@H]2CC[C@]2(C)C(=O)CC[C@@H]12	29.6 µM
C[C@]12CC[C@H]3[C@@H](CCC4=CC(=O)CC[C@@]43CO)[C@@H]1CCC2=O	13 µM
C[C@]12C[C@@H](CCCc3ccccc3)C(=O)C=C1CC[C@@H]1[C@@H]2CC[C@]2(C)C(=O)CC[C@@H]12	50.2 µM
C[C@]12CC[C@H]3[C@@H](CCC4=CC(=O)CC[C@@]43CI)[C@@H]1CCC2=O	4.1 µM
C[C@]12CCC(=O)C=C1CC[C@@H]1[C@@H]2CC[C@]2(C)C(=O)[C@H](O)C[C@@H]12	200 µM
C[C@]12CC[C@H]3[C@@H](CCC4=CC(=O)CC[C@@]43C#N)[C@@H]1CCC2=O	25 µM
C[C@]12C[C@@H](Cc3ccccc3)C(=O)C=C1CC[C@@H]1[C@@H]2CC[C@]2(C)C(=O)CC[C@@H]12	466 µM
COC1=C2C=C[C@@H]3[C@H](CC[C@]4(C)C(=O)CC[C@@H]34)[C@@]2(C)CCC1=O	11 µM
C[C@]12C=CC(=O)C=C1C[C@@H](CCc1cccc([N+](=O)[O-])c1)[C@@H]1[C@@H]2CC[C@]2(C)C(=O)CC[C@@H]12	0.133 µM
C[C@]12CC[C@@H]3c4cc(F)c(O)cc4CC[C@H]3[C@@H]1CCC2=O	11.6 µM
CCCCC[C@@H]1C[C@@H]2[C@H](CC[C@]3(C)C(=O)CC[C@@H]23)[C@@]2(C)C=CC(=O)C=C12	0.054 µM
C[C@]12CC[C@H]3[C@@H](C=CC4=CC(=O)C=C[C@@]43CBr)[C@@H]1CCC2=O	2.1 µM
C[C@]12CCC[C@H](O)C1=CC(=O)[C@@H]1[C@@H]2CC[C@]2(C)C(=O)CC[C@@H]12	6.3 µM
C[C@]12CCCCC1=CC(=O)[C@@H]1[C@@H]2CC[C@]2(C)C(=O)CC[C@@H]12	2.3 µM
CC1(C)C[C@@]2(C)C(=CC1=O)C(=O)C[C@@H]1[C@@H]2CC[C@]2(C)C(=O)CC[C@@H]12	0.3 µM
C[C@]12CC[C@H]3[C@@H](CCC4=CCCC[C@@]43CO)[C@@H]1C[C@@H](O)[C@@H]2O	971 µM
